Results from ChEMBL document CHEMBL1201862, “PubChem BioAssay data set” (2004).
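96-well plates; 48 h exposure; 5 concentrations. Endpoints by linear interpolation between flanking doses. Not reached: highest tested concentration assigned. GI50: concentration for 50% inhibition of growth.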 Active and inactive are the calls of the source. Rule as the data show it: active = GI50 up to about 1.1 µM and inactive = higher.

Experiments:
Test in all cases: inhibition of tumour cell growth, NCI panel, 48 h
[1] = tested on: CCRF-CEM
[2] = tested on: Malme-3M
[3] = tested on: COLO 205
[4] = tested on: HCT-15
[5] = tested on: U-251
[6] = tested on: A498
[7] = tested on: M14
[8] = tested on: NCI-H460
[9] = tested on: SN12C
[10] = tested on: OVCAR-8
[11] = tested on: CAKI-1
[12] = tested on: K562
[13] = tested on: 786-0
[14] = tested on: BT-549
[15] = tested on: MDA-MB-231
[16] = tested on: OVCAR-5
[17] = tested on: MOLT-4
[18] = tested on: NCI/ADR-RES
[19] = tested on: MCF7
[20] = tested on: RPMI-8226
[21] = tested on: HCT-116
[22] = tested on: SW-620
[23] = tested on: SK-OV-3
[24] = tested on: ACHN
[25] = tested on: MDA-N
[26] = tested on: EKVX
[27] = tested on: SF-268
[28] = tested on: MDA-MB-435
[29] = tested on: PC-3
[30] = tested on: NCI-H226
[31] = tested on: UACC-62
[32] = tested on: SNB-75
[33] = tested on: SK-MEL-28
[34] = tested on: UACC-257
[35] = tested on: SNB-19
[36] = tested on: NCI-H23
[37] = tested on: HCC 2998
[38] = tested on: SF-295
[39] = tested on: T47D
[40] = tested on: HT-29
[41] = tested on: HOP-62
[42] = tested on: SF-539
[43] = tested on: OVCAR-4
[44] = tested on: Hs-578T
[45] = tested on: RXF 393
[46] = tested on: OVCAR-3
[47] = tested on: DU-145
[48] = tested on: KM12
[49] = tested on: A549
[50] = tested on: UO-31
[51] = tested on: SK-MEL-2

O=[N+]([O-])/C(C(Cl)=C(Cl)Cl)=C(\Nc1cccc2ccccc12)Sc1ccccc1
GI50 [1]: 8.55 µM (inactive)
GI50 [2]: 17.5 µM (inactive)
GI50 [3]: 15.1 µM (inactive)
GI50 [4]: 15.7 µM
GI50 [5]: 11.4 µM (inactive)
GI50 [6]: 11 µM (inactive)
GI50 [7]: 24.9 µM (inactive)
GI50 [8]: 19.8 µM (inactive)
GI50 [9]: 20.2 µM (inactive)
GI50 [10]: 15.3 µM (inactive)
GI50 [11]: 15.5 µM (inactive)
GI50 [12]: 57.3 µM (inactive)
GI50 [13]: 18.4 µM (inactive)
GI50 [14]: 18.4 µM (inactive)
GI50 [15]: 11.3 µM (inactive)
GI50 [16]: 20.3 µM (inactive)
GI50 [17]: > 100 µM (inactive)
GI50 [18]: 15.2 µM (inactive)
GI50 [19]: 12.6 µM (inactive)
GI50 [20]: 6.89 µM (inactive)
GI50 [21]: 15 µM (inactive)
GI50 [22]: 8.53 µM (inactive)
GI50 [23]: 26.1 µM (inactive)
GI50 [24]: 13.9 µM (inactive)
GI50 [25]: 16.5 µM (inactive)
GI50 [26]: 11.4 µM (inactive)
GI50 [27]: 12.9 µM (inactive)
GI50 [28]: 13.8 µM (inactive)
GI50 [29]: 13.5 µM (inactive)
GI50 [30]: 16.1 µM (inactive)
GI50 [31]: 10.8 µM (inactive)
GI50 [32]: 19.2 µM (inactive)
GI50 [33]: 18.7 µM (inactive)
GI50 [34]: 14.8 µM (inactive)
GI50 [35]: 18.8 µM (inactive)
GI50 [36]: 16 µM (inactive)
GI50 [37]: 17.8 µM (inactive)
GI50 [38]: 15.2 µM (inactive)
GI50 [39]: 19.5 µM (inactive)
GI50 [40]: 19.5 µM (inactive)
GI50 [41]: 23.9 µM (inactive)
GI50 [42]: 19.3 µM (inactive)
GI50 [43]: 10.4 µM (inactive)
GI50 [44]: 12.8 µM (inactive)
GI50 [45]: 12.9 µM (inactive)
GI50 [46]: 7.31 µM (inactive)
GI50 [47]: 13.2 µM (inactive)
GI50 [48]: 13.2 µM (inactive)
GI50 [49]: 19.7 µM (inactive)
GI50 [50]: 16 µM (inactive)
GI50 [51]: 14.6 µM (inactive)
